Laboratory results published in ChEMBL document CHEMBL1201862, “PubChem BioAssay data set” (2004).
The source made the active and inactive calls.

Tests used:
Beta-galactosidase = Beta-galactosidase (Escherichia coli, UniProt Q8VNN2); assay: PubChem AID 485352; type: functional
[1] = target: T1, Type-1 angiotensin II receptor (Homo sapiens, UniProt P30556); assay: AT1 receptor antagonists, dose response, selectivity assay for APJ receptor antagonist project, cell-based, uHTS hits (AID 463214); type: functional;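 also: antagonist potency against angiotensin II stimulated AT1 response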
T1 sequence (P30556 whole entry): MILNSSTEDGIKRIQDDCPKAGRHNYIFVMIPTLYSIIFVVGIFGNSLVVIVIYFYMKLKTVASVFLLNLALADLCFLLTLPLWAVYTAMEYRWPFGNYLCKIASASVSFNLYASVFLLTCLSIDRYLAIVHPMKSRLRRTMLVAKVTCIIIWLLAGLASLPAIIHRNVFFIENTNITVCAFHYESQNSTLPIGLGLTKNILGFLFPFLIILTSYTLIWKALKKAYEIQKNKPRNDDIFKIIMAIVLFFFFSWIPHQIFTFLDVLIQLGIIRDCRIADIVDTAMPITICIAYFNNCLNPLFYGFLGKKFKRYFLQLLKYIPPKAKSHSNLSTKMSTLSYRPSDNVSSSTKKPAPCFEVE

[2] = target: Beta-2 adrenergic receptor (Homo sapiens, UniProt P07550); assay: beta2AR agonists driving receptor internalization, dose response, cell-based, FAP fluorogen, flow cytometry, cherry pick 1 (AID 588763); type: functional
Sequence of Beta-2 adrenergic receptor (P07550 whole entry): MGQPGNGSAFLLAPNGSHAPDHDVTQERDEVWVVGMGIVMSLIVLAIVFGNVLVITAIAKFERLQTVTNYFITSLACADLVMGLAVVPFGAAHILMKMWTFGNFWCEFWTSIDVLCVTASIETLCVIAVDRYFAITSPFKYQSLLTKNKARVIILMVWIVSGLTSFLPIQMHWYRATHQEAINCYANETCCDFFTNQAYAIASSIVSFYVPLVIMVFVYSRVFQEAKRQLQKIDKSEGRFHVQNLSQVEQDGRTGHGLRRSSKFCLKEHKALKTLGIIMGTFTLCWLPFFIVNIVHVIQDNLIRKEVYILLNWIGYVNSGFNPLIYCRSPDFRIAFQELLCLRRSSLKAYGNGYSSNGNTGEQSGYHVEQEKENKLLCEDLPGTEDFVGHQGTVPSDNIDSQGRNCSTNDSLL

HeLa = assay: HeLa cell cytotoxicity, dose response, cytotoxicity control for MITF activator project, CellTiter-Glo luminescence, cherry-pick samples (AID 540259); type: functional, cell-based; conditions: Homo sapiens
Cytochrome P450 3A4 = Cytochrome P450 3A4 (Homo sapiens, UniProt P08684);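 also: CYP3A4 tested as one member of a cytochrome P450 panel screen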
Sequence of Cytochrome P450 3A4 (P08684 whole entry): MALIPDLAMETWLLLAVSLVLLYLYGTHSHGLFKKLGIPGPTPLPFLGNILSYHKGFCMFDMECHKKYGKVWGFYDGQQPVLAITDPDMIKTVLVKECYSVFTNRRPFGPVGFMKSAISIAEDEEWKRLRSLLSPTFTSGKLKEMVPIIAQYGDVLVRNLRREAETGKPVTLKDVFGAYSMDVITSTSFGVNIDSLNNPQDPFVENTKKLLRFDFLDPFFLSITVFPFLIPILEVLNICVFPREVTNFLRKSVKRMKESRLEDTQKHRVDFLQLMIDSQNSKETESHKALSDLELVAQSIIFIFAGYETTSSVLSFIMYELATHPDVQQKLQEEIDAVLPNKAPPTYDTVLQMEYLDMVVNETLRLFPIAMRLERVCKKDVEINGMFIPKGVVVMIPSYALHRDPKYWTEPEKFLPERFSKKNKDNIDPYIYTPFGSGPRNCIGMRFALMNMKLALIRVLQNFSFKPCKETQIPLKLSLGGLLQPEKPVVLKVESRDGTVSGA

Sequence of Beta-galactosidase (Q8VNN2 whole entry): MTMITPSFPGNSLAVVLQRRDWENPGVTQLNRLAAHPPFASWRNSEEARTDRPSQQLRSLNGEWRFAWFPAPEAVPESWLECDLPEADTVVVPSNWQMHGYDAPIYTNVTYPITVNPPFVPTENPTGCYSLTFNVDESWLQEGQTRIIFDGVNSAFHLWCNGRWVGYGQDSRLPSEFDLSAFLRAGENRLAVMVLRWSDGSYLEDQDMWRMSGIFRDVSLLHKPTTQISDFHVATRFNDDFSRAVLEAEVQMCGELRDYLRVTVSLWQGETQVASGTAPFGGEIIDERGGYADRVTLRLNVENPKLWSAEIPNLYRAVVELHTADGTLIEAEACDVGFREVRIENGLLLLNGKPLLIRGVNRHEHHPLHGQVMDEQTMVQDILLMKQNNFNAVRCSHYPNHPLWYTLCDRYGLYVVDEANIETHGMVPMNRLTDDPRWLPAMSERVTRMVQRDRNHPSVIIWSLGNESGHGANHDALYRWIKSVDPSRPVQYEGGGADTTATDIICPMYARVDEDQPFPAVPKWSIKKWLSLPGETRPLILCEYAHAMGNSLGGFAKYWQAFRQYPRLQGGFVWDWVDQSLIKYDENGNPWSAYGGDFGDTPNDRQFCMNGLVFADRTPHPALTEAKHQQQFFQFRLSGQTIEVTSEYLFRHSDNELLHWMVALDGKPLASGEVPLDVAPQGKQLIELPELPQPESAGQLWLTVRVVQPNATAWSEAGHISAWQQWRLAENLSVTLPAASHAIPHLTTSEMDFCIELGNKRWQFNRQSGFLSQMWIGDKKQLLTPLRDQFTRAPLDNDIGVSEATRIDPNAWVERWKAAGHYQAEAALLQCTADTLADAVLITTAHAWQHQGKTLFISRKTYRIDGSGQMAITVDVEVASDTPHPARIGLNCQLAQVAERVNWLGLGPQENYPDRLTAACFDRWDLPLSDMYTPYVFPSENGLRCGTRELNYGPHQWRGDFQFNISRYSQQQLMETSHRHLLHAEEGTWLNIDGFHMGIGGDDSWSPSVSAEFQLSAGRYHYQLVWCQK

Structure (SMILES) | EC50 (Beta-galactosidase) | IC50 [1] | EC50 [2] | other results
O=C1N=c2ccc(Br)cc2=C1Nc1ccc(-c2nnc3n2CCCCC3)cc1 | > 40 µM (inactive) | 29.4 µM (not active) | – | –
Cc1ccc(N=C2C(=O)Nc3ccc(Br)cc32)cc1 | > 40 µM (inactive) | 7.76 µM (active) | – | –
c1ccc(CSc2nnnn2-c2cccc3ccccc23)nc1 | – | – | 1.22 µM (active) | –
COc1ccc([C@H](C)NC[C@H](O)c2ccc(O)c(NC=O)c2)cc1 | – | – | 0.0108 µM (active) | –
CSc1ccc(CNc2ccc(Cl)cc2)cc1 | – | – | – | AC50 (HeLa): 56.4 µM (active); AC50 (Cytochrome P450 3A4): inconclusive
